# Laboratory results reported in PMC7356589, “Hybrid Gold(I) NHC-Artemether Complexes to Target Falciparum Malaria Parasites” (Molecules, 2020).
# Like-named read-outs stand apart in the source and are kept apart here.
# Assays:
# [1] = test system: P. falciparum F32-ART and F32-TEM strains; test: Recrudescence assay, comparison of F32-TEM and F32-ART (cross-resistance with artemisinin); assay type: cell-based, Plasmodium falciparum; conditions: for Mean ± SEM Difference of Recrudescence Days between F32-TEM and F32-ART: 48 h exposure; for Cross-resistance with artemisinin (result in words): recrudescence assay, F32-ART vs F32-TEM
# Protocol: Three hybrid molecules with the best selectivity indexes in each series, i.e., Aubis(3-Me) (14), Aubis(4-Me) (19) and Aubis(5-Me) (23), were evaluated in vitro for their efficacy in a context of resistance to artemisinins. For that, the comparison of the recovery capacity between the strain F32-ART, artemisinin-resistant, and its twin artemisinin-sensitive F32-TEM was evaluated after 48 h-treatment with the molecule to be tested via the recrudescence assay. When ring-stage resistant parasites are exposed to artemisinin, most of them die, but a small sub-set of parasites is able to escape the treatment by a cell cycle arrest, called quiescence mechanism. This phenomenon is characterized by a halt of DNA synthesis, which explains the very low IC50 values obtained with all artemisinins even for the artemisinin-resistant strain F32-ART [9, 15, 30]. Therefore, the standard in vitro chemosensitivity assay, based on the measurement of DNA levels to estimate the inhibition of the parasite proliferation, is irrelevant to study the resistance to artemisinins and evaluate possible cross-resistances.
# (§1) P. falciparum strains F32-ART and F32-TEM, synchronized at ring stage parasites at 3% parasitemia and 2% hematocrit have undergone a 48 h-treatment with the drugs to be tested. The parasites were then washed with RPMI-1640 medium and re-cultivated in drug-free culture conditions with 10% human serum. The parasitemia was then monitored daily to determine the time required for each parasite culture to recover the initial parasitemia of 3%. If no parasites were seen up to 30 days, the parasites were considered as “not recrudescent” [9, 15]. The drug doses were chosen in order to discriminate the phenotype response between the artemisinin-resistant and the -sensitive strains. A range from 1-fold to >100-fold the antiplasmodial IC50 value previously found has been tested to determine the most appropriate drug dose to use in this recrudescence assay.
# [2] = test system: P. falciparum F32-ART (artemisinin-resistant); test: Recrudescence assay after 48 h drug exposure, F32-ART; assay type: cell-based, Plasmodium falciparum; conditions: 48 h exposure
# Protocol: (§2) The Plasmodium falciparum F32-ART and F32-TEM parasite lines, resistant and sensitive to artemisinins respectively, were cultured in vitro in type O human erythrocytes (Etablissement Français du sang (EFS), Toulouse, France), diluted to 2% hematocrit, in RPMI-1640 medium (GIBCO, Illkirch, France) and supplemented with 5% Human Serum AB (EFS, Toulouse, France) at 37 °C and 5% CO2 [33]. Every other day and before each experiment, P. falciparum F32-ART and F32-TEM parasites were synchronized at ring stage using 5% D-sorbitol solution [34].
# as §1
# [3] = test system: P. falciparum F32-TEM (artemisinin-sensitive); test: Recrudescence assay after 48 h drug exposure, F32-TEM; assay type: cell-based, Plasmodium falciparum; conditions: 48 h exposure
# Protocol: as §2, §1
# [4] = Cytotoxicity on Vero cells (MTT); assay type: cell-based, monkey; conditions: monkey; Vero cells, 48 h, MTT; read-out: Cytotoxicity on Vero Cells IC50 ± SEM
# Protocol: (§3) The cells were cultured in MEM medium (Dutscher, Brumath, France) supplemented with 10% fetal bovine serum (Dutscher), 0.7 mM glutamine and 100 μg/mL gentamicin. The cells were seeded at 10^4 cells per well in a 96-well plates and incubated during 24 h. Then, cells were incubated for additional 48 h with the drugs. […] Subsequently, DMSO was added to the wells containing the cells and MTT to dissolve the formed crystals. The plates were then read to determine the absorbance at wavelength of 540 nm (µQuant, BioTek, Illkirch, France). Cell proliferation was calculated from at least three independent experiments using GraphPad Prism software 7 (GraphPad Software, San Diego, CA, USA). The cytotoxic/antiplasmodial activity ratio corresponds to the selectivity index.
# Vero cell line = test: Cytotoxicity on Vero cells (MTT); assay type: cell-based, monkey; conditions: for Selectivity Index Vero Cells/P. falciparum: cytotoxic/antiplasmodial activity ratio; for IC50: Vero cells, 48 h, MTT, read-out: Cytotoxicity on Vero Cells IC50 ± SEM
# Protocol: as §3
# [5] = test system: P. falciparum strain F32-TEM (F32-Tanzania); test: In vitro antiplasmodial activity (SYBR Green fluorescence and [3H] hypoxanthine assays); assay type: cell-based, Plasmodium falciparum; conditions: strain F32-Tanzania (F32-TEM), mean of at least 4 experiments, SYBR Green and radioactivity assays, read-out: Antiplasmodial Activity on P. falciparum IC50 ± SEM
# Protocol: In vitro antiplasmodial activities of the synthesized hybrid molecules were evaluated against the P. falciparum strain F32-TEM (corresponding to the parental strain F32-Tanzania). Each molecule was tested at least in three independent experiments (except Aubis(5-Bn), tested twice) by a SYBR Green Fluorescence assay but also at least once with the standard chemosensitivity assay recommended by the WHO and based on the incorporation of [^3H] hypoxanthine.
# For the SYBR Green Fluorescence assay, ring stage parasites were treated with the drugs for 48 h. Then, the pellets were washed twice with PBS and frozen at −20 °C. Thawed plates were incubated for 2 h at room temperature with the SYBR Green (Thermo-Fisher, Illkirch, France) lysis buffer (20 mm Tris base pH 7.5, 5 mm EDTA, 0.008% w/v saponin, 0.08% w/v Triton X-100). The plates were then read using a fluorescence plate reader (FLx800, BioTek, Illkirch, France) at an excitation wavelength of 485 nm and 535 nm for the emission wavelength. The IC50 values (concentration inhibiting 50% of the parasite’s growth) were determined using GraphPad Prism software 7 (GraphPad Software, San Diego, CA, USA).
# For [^3H] hypoxanthine assay, ring stage parasites were incubated with the drug dilutions for 24 h, then, [^3H] hypoxanthine (50 μL/0.25 μCi; Perkin-Elmer, Courtaboeuf, France) was added for another 24 h period. After that, plates were frozen at −20 °C. The next step is to thaw the plates and to collect the nucleic acids. Tritium incorporation was then determined thanks to a β-counter (Perkin-Elmer, Courtaboeuf, France).
# The antiplasmodial activities reported in Table 1 correspond thus to the mean of IC50 values from at least 4 independent experiments acquired by the two methods, SYBR Green and radioactivity.
# [6] = Plasmodium falciparum, F32, 48 h
Structure (SMILES),IC50 at 48 h [4] [nM],Selectivity Index Vero Cells/P. falciparum (Vero cell line),"IC50 [5, 6] [nM]",Mean ± SEM Difference of Recrudescence Days between F32-TEM and F32-ART ([1]; dose 500 nM) [days],Cross-resistance with artemisinin (result in words) [1],"Median (range) Recrudescence Days, F32-ART ([2]; dose 500 nM)","Median (range) Recrudescence Days, F32-TEM ([3]; dose 500 nM)",IC50 (Vero cell line) [nM],IC50 ([5]; 48 h) [nM],also measured
"C[C@@H]1CC[C@H]2[C@@H](C)C(=O)O[C@@H]3O[C@@]4(C)CC[C@@H]1[C@]32OO4 [Artemisinin, reference compound]",130000,7 000,18 ± 2,,,,,,,"Mean ± SEM Difference of Recrudescence Days between F32-TEM and F32-ART ([1]; dose 18 µM): 9.7 ± 0.3 days; Mean ± SEM Difference of Recrudescence Days between F32-TEM and F32-ART ([1]; dose 18 µM, listed as artemisinin): 9.7 days; Median (range) Recrudescence Days, F32-ART ([2]; dose 18 µM): 9.5 (6–17) days; Median (range) Recrudescence Days, F32-TEM ([3]; dose 18 µM): 18.5 (17–>30) days"
C[C@@H]1CCC2[C@@H](C)[C@@H](OCCCn3cc[n+](C)[c]3[Au-][c]3n(CCCO[C@H]4O[C@@H]5O[C@@]6(C)CCC7[C@H](C)CCC([C@H]4C)[C@]75OO6)cc[n+]3C)O[C@@H]3O[C@@]4(C)CCC1[C@@]23OO4.O=[N+]([O-])[O-] (stereo partly drawn) [Aubis(3-Me)],,,,16,cross-resistance,8 days,24 days,5000,35 ± 8,"Mean ± SEM Difference of Recrudescence Days between F32-TEM and F32-ART ([1]; dose 200 nM): 4.6 ± 1.2 days; Median (range) Recrudescence Days, F32-ART ([2]; dose 200 nM): 7 (7–13) days; Median (range) Recrudescence Days, F32-TEM ([3]; dose 200 nM): 14 (11–16) days"
C[C@@H]1CCC2[C@@H](C)[C@@H](OCCCCn3cc[n+](C)[c]3[Au-][c]3n(CCCCO[C@H]4O[C@@H]5O[C@@]6(C)CCC7[C@H](C)CCC([C@H]4C)[C@]75OO6)cc[n+]3C)O[C@@H]3O[C@@]4(C)CCC1[C@@]23OO4.[Cl-] (stereo partly drawn) [Aubis(4-Me)],,,,>17.5 ± 1.5,cross-resistance,12.5 (11–14) days,>30 days,800,13 ± 3,"Mean ± SEM Difference of Recrudescence Days between F32-TEM and F32-ART ([1]; dose 100 nM): 1 days; Mean ± SEM Difference of Recrudescence Days between F32-TEM and F32-ART ([1]; dose 1 µM): 14 days; Median (range) Recrudescence Days, F32-ART ([2]; dose 100 nM): 5 days; Median (range) Recrudescence Days, F32-ART ([2]; dose 1 µM): 16 days; Median (range) Recrudescence Days, F32-TEM ([3]; dose 100 nM): 6 days; Median (range) Recrudescence Days, F32-TEM ([3]; dose 1 µM): 30 days"
C[C@@H]1CCC2[C@@H](C)[C@@H](OCCCCCn3cc[n+](C)[c]3[Au-][c]3n(CCCCCO[C@H]4O[C@@H]5O[C@@]6(C)CCC7[C@H](C)CCC([C@H]4C)[C@]75OO6)cc[n+]3C)O[C@@H]3O[C@@]4(C)CCC1[C@@]23OO4.[Cl-] (stereo partly drawn) [Aubis(5-Me)],,,,>16,cross-resistance,9.5 (8–11) days,>25.5 (21–>30) days,1000,9 ± 0.9,"Mean ± SEM Difference of Recrudescence Days between F32-TEM and F32-ART ([1]; dose 100 nM): 9 days; Mean ± SEM Difference of Recrudescence Days between F32-TEM and F32-ART ([1]; dose 1 µM): 21 days; Median (range) Recrudescence Days, F32-ART ([2]; dose 100 nM): 6 days; Median (range) Recrudescence Days, F32-ART ([2]; dose 1 µM): 9 days; Median (range) Recrudescence Days, F32-TEM ([3]; dose 100 nM): 15 days; Median (range) Recrudescence Days, F32-TEM ([3]; dose 1 µM): 30 days"
"C[C@@H]1CCC2[C@@H](C)[C@@H](OCCCBr)O[C@@H]3O[C@@]4(C)CCC1[C@@]23OO4 (stereo partly drawn) [DHA-C3, 10β-(20-Bromopropoxy)dihydroartemisinin]",2500,294,8.5 ± 3,,,,,,,
"C[C@@H]1CCC2[C@@H](C)[C@@H](OCCCCCn3cc[n+](Cc4ccccc4)c3)O[C@@H]3O[C@@]4(C)CCC1[C@@]23OO4 (stereo partly drawn) [L5-Bn, 3′-Benzyl-1′-[10β-(22-pentoxy)dihydroartemisinin]1H-imidazol-3-ium bromide]",1000,10,< 100,,,,,,98 ± 26,
"Cc1cc(C)c(-[n+]2ccn(CCCCCO[C@H]3O[C@@H]4O[C@@]5(C)CCC6[C@H](C)CCC([C@H]3C)[C@]64OO5)c2)c(C)c1 (stereo partly drawn) [L5-Mes, 3′-Mesityl-1′-[10β-(22-pentoxy)dihydroartemisinin]1H-imidazol-3-ium bromide]",25000,255,< 100,,,,,,98 ± 24,
